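Where inhibition never reached the appropriate level, the endpoint shown equals the highest concentration tested. Otherwise, values were interpolated linearly from a five-concentration, 48-hour dose response in 96-well plates. The concentration for 50% growth inhibition is given as GI50.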 Active and inactive are the calls of the source. Cut-off read from the data, not from the text of the source: active = GI50 up to about 1.1 µM and inactive = higher.
Columns and labels:
Assay in all cases: DTP human tumour cell line panel, 48 h
[1] = test system: HOP-62
[2] = test system: HL-60
[3] = test system: UO-31
[4] = test system: Malme-3M
[5] = test system: K562
[6] = test system: NCI-H460
[7] = test system: KM12
[8] = test system: RPMI-8226
[9] = test system: MCF7
[10] = test system: COLO 205
[11] = test system: ACHN
[12] = test system: PC-3
[13] = test system: OVCAR-3
[14] = test system: CAKI-1
[15] = test system: SF-268
[16] = test system: SK-OV-3
[17] = test system: CCRF-CEM
[18] = test system: MDA-N
[19] = test system: SK-MEL-2
[20] = test system: SW-620

| SMILES | GI50 [1] | GI50 [2] | GI50 [3] | GI50 [4] | GI50 [5] | GI50 [6] | GI50 [7] | GI50 [8] | GI50 [9] | GI50 [10] | GI50 [11] | GI50 [12] | GI50 [13] | GI50 [14] | GI50 [15] | GI50 [16] | GI50 [17] | GI50 [18] | GI50 [19] | GI50 [20] |
| --- | --- | --- | --- | --- | --- | --- | --- | --- | --- | --- | --- | --- | --- | --- | --- | --- | --- | --- | --- | --- |
| CCOC(=O)CN1C(=O)c2c(c(C)n(-c3ccccc3)c2C)C1=O | 36 µM (inactive) | > 100 µM (inactive) | > 100 µM (inactive) | > 100 µM (inactive) | > 100 µM (inactive) | > 100 µM (inactive) | > 100 µM (inactive) | > 100 µM (inactive) | > 100 µM (inactive) | > 100 µM (inactive) | > 100 µM (inactive) | > 100 µM (inactive) | > 100 µM (inactive) | > 100 µM (inactive) | > 100 µM (inactive) | > 100 µM (inactive) | > 100 µM (inactive) | > 100 µM (inactive) | > 100 µM (inactive) | > 100 µM (inactive) |
| c1ccc2c(NCCCCCCNc3c4ccccc4nc4ccccc34)c3ccccc3nc2c1 | 0.206 µM (active) | 0.25 µM (active) | 11.3 µM (inactive) | 1.17 µM (inactive) | 0.0649 µM (active) | 0.0631 µM (active) | 0.215 µM (active) | < 0.0358 µM (active) | 0.155 µM (active) | 0.235 µM (active) | 0.23 µM (active) | 0.445 µM (active) | 0.277 µM (active) | 1.53 µM (inactive) | 0.56 µM (active) | 1.01 µM (active) | 0.0471 µM (active) | 0.288 µM (active) | 1.26 µM (inactive) | 0.0458 µM (active) |
| O=P1(NCCCl)OCCCN1CCCl (stereo not given) [IFOSFAMIDE] | 341 µM (inactive) | 320 µM (inactive) | 386 µM (inactive) | 330 µM (inactive) | 373 µM (inactive) | 394 µM (inactive) | 406 µM (inactive) | 332 µM (inactive) | 361 µM (inactive) | 394 µM (inactive) | > 479 µM (inactive) | > 500 µM (inactive) | 365 µM (inactive) | 287 µM (inactive) | 351 µM (inactive) | 379 µM (inactive) | 207 µM (inactive) | > 500 µM (inactive) | 382 µM (inactive) | 340 µM (inactive) |
